Data on 20 compounds can be found in PubChem BioAssay AID256 (DTP/NCI, 2004).

The structures appear in SMILES notation. Values joined by “and” are separate entries in the source; they are usually repeats but may differ in a detail not shown here. Equal entries are not always repeated. Toxic doses and inconclusive results are not listed.

The assay deals with CD2F1 mice, L1210 leukemia ip, survival T/C. Nature of the assay: NCI In Vivo Anticancer Drug Screen. Data for tumor model L1210 Leukemia (intraperitoneal) in CD2F1 (CDF1) mice. The conditions noted are these: higher = longer survival. The procedure, abridged:
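Ratio T/C, where T is the treated-group value and C the vehicle-dosed control value, from mice implanted with a transplantable tumor.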

[1] abbreviates: endpoint: mean survival time, dose: 12.5 mg/kg/injection, schedule: Q01DX009 (ip), vehicle: saline with Tween-80.
The mark [2] stands for this setting: endpoint: mean survival time, dose: 25.0 mg/kg/injection, schedule: Q01DX009 (ip), vehicle: saline with Tween-80.
Where [3] appears, read: endpoint: mean survival time, dose: 100.0 mg/kg/injection, schedule: Q04DX003 (ip), vehicle: saline with Tween-80.
The mark [4] stands for this setting: endpoint: mean survival time, dose: 100.0 mg/kg/injection, schedule: Q01DX001 (ip), vehicle: saline with Tween-80.
Setting [5] is: endpoint: mean survival time, dose: 25.0 mg/kg/injection, schedule: Q01DX009 (ip), vehicle: saline.
Where [6] appears, read: endpoint: mean survival time, dose: 50.0 mg/kg/injection, schedule: Q01DX009 (ip), vehicle: saline.
Where [7] appears, read: endpoint: mean survival time, dose: 100.0 mg/kg/injection, schedule: Q01DX009 (ip), vehicle: saline.
The mark [8] stands for this setting: endpoint: mean survival time, dose: 100.0 mg/kg/injection, schedule: Q01DX009 (ip), vehicle: saline with Tween-80.
Setting [9] is: endpoint: mean survival time, dose: 200.0 mg/kg/injection, schedule: Q01DX009 (ip), vehicle: saline with Tween-80.
The mark [10] stands for this setting: endpoint: mean survival time, dose: 400.0 mg/kg/injection, schedule: Q01DX009 (ip), vehicle: saline with Tween-80.
The mark [11] stands for this setting: endpoint: mean survival time, dose: 50.0 mg/kg/injection, schedule: Q01DX009 (ip), vehicle: saline with Tween-80.
Where [12] appears, read: endpoint: mean survival time, dose: 200.0 mg/kg/injection, schedule: Q01DX009 (ip), vehicle: saline.
Setting [13] is: endpoint: mean survival time, dose: 400.0 mg/kg/injection, schedule: Q01DX009 (ip), vehicle: saline.
[14] abbreviates: endpoint: mean survival time, dose: 100.0 mg/kg/injection, schedule: Q04DX003 (ip), vehicle: saline.

For `CCCCNC(C)(C)C(SSC(c1ccc(Cl)cc1)C(C)(C)NCCCC)c1ccc(Cl)cc1` (stereo not given), the T/C is, setting by setting: (endpoint: mean survival time, dose: 6.25 mg/kg/injection, schedule: Q01DX009 (ip), vehicle: saline with Tween-80) 96 % of control; under setting [1], 98 % of control; under setting [2], 96 % of control and 100 % of control; (endpoint: mean survival time, dose: 25.0 mg/kg/injection, schedule: Q04DX003 (ip), vehicle: saline with Tween-80) 90 % of control; (endpoint: mean survival time, dose: 50.0 mg/kg/injection, schedule: Q04DX003 (ip), vehicle: saline with Tween-80) 92 % of control; under setting [3], 95 % of control and 96 % of control.

`CCCCCCCCC(CCCCCC)CCCCCCCC`: the T/C (endpoint: mean survival time, dose: 100.0 mg/kg/injection, schedule: Q01DX001 (ip), vehicle: saline) was 96 % of control; the T/C (endpoint: mean survival time, dose: 200.0 mg/kg/injection, schedule: Q01DX001 (ip), vehicle: saline) was 96 % of control; the T/C (endpoint: mean survival time, dose: 400.0 mg/kg/injection, schedule: Q01DX001 (ip), vehicle: saline) was 97 % of control.

Regarding `CCC(C)CC(C)C1=NC(C)(C)CC(C)O1` (stereo not given), the T/C runs as follows: under setting [4], 104 % of control; (endpoint: mean survival time, dose: 200.0 mg/kg/injection, schedule: Q01DX001 (ip), vehicle: saline with Tween-80) 90 % of control.

As for `CCCN1CCN(c2ccccc2)CC1`, the T/C runs as follows: under setting [5], 103 % of control; under setting [6], 103 % of control; under setting [7], 96 % of control; under setting [3], 103 % of control.

As to `COC(=O)C1(C(=O)OC)C2C(=O)C3C(C21)C3(C(=O)OC(C)(C)C)C(=O)OC(C)(C)C` (stereo not given), the T/C is, setting by setting: under setting [8], 96 % of control; under setting [9], 94 % of control; under setting [10], 93 % of control.

As to `Cc1ccc(S(=O)(=O)OC2CCC3C4CCC5=CC(=O)CCC5(C)C4CCC23C)cc1` (stereo not given), the T/C (endpoint: mean survival time, dose: 75.0 mg/kg/injection, schedule: Q04DX003 (sc), vehicle: steriod suspending solution) is 98 % of control; the T/C (endpoint: mean survival time, dose: 150.0 mg/kg/injection, schedule: Q04DX003 (sc), vehicle: steriod suspending solution) was 98 % of control; the T/C (endpoint: mean survival time, dose: 300.0 mg/kg/injection, schedule: Q04DX003 (sc), vehicle: steriod suspending solution) is 98 % of control.

On to `CC1(C)OC1CS(=O)c1ccccc1` (stereo not given), for which the T/C is, setting by setting: under setting [1], 95 % of control; (endpoint: mean survival time, dose: 12.5 mg/kg/injection, schedule: Q01DX009 (ip), vehicle: saline) 98 % of control; under setting [2], 98 % of control; under setting [5], 93 % of control; under setting [11], 95 % of control; under setting [6], 101 % of control. The T/C reads like this: under setting [8], 95 % of control; under setting [7], 95 % of control; under setting [9], 98 % of control; under setting [12], 105 % of control; under setting [10], 93 % of control; under setting [13], 98 % of control.

On to `CS(=O)(=O)c1nc2ccccc2s1`, for which the T/C is, setting by setting: under setting [8], 103 % of control; under setting [9], 91 % of control.

Consider `C#CC(C)(C)CC(=O)O`, for which the T/C was 102 % of control under setting [7], 101 % of control under setting [12] and 98 % of control under setting [13].

For `CCCCCCCCCC(=O)N1CC[N+](C)(C)CC1`, the T/C by setting is: (endpoint: mean survival time, dose: 5.0 mg/kg/injection, schedule: Q01DX001 (ip), vehicle: saline) 102 % of control; (endpoint: mean survival time, dose: 10.0 mg/kg/injection, schedule: Q01DX001 (ip), vehicle: saline) 105 % of control; (endpoint: mean survival time, dose: 20.0 mg/kg/injection, schedule: Q01DX001 (ip), vehicle: saline) 104 % of control.

In the case of `CS(=O)(=O)c1cnc2ccccc2n1`, the T/C is, setting by setting: under setting [14], 97 % of control; (endpoint: mean survival time, dose: 200.0 mg/kg/injection, schedule: Q04DX003 (ip), vehicle: saline) 86 % of control; (endpoint: mean survival time, dose: 400.0 mg/kg/injection, schedule: Q04DX003 (ip), vehicle: saline) 95 % of control.

Take `COc1ccc(C2=CSc3ccccc3N2)cc1`: the T/C is, setting by setting: (endpoint: mean survival time, dose: 100.0 mg/kg/injection, schedule: Q04DX002 (ip), vehicle: saline with Tween-80) 96 % of control; (endpoint: mean survival time, dose: 200.0 mg/kg/injection, schedule: Q04DX002 (ip), vehicle: saline with Tween-80) 104 % of control.

Take `CCc1ccc(O)cc1O`: the T/C (endpoint: mean survival time, dose: 25.0 mg/kg/injection, schedule: Q04DX003 (ip), vehicle: saline) is 97 % of control; the T/C (endpoint: mean survival time, dose: 50.0 mg/kg/injection, schedule: Q04DX003 (ip), vehicle: saline) is 102 % of control; the T/C under setting [14] is 94 % of control and 96 % of control.

As to `Nc1ccn(C2OC(COC(=O)C34CC5CC(CC(C5)C3)C4)C(O)C2O)c(=O)n1` (stereo not given), the T/C was 201 % of control (endpoint: mean survival time, dose: 12.5 mg/kg/injection, schedule: Q01DX009 (ip), vehicle: other); 282 % of control (endpoint: mean survival time, dose: 25.0 mg/kg/injection, schedule: Q01DX009 (ip), vehicle: other); 365 % of control (endpoint: mean survival time, dose: 50.0 mg/kg/injection, schedule: Q01DX009 (ip), vehicle: other); 253 % of control (endpoint: mean survival time, dose: 100.0 mg/kg/injection, schedule: Q01DX009 (ip), vehicle: other).

For the compound `COC(=O)C(CCCCN)NC(=O)c1ccccc1` (stereo not given), the T/C is, setting by setting: under setting [3], 101 % of control; (endpoint: mean survival time, dose: 200.0 mg/kg/injection, schedule: Q04DX003 (ip), vehicle: saline with Tween-80) 103 % of control; (endpoint: mean survival time, dose: 400.0 mg/kg/injection, schedule: Q04DX003 (ip), vehicle: saline with Tween-80) 101 % of control.

For the compound `CCCCCCCCC(=O)N1CCN(C(=O)CCCCCCCC)C1`, the T/C runs as follows: (endpoint: mean survival time, dose: 75.0 mg/kg/injection, schedule: Q04DX003 (ip), vehicle: saline) 94 % of control; (endpoint: mean survival time, dose: 150.0 mg/kg/injection, schedule: Q04DX003 (ip), vehicle: saline) 97 % of control; (endpoint: mean survival time, dose: 300.0 mg/kg/injection, schedule: Q04DX003 (ip), vehicle: saline) 95 % of control.

For the compound `CC1(C)N=C(N)N=C(N)N1c1cc(Cl)cc(CCNC(=O)Nc2ccc(S(=O)(=O)F)cc2)c1`, under setting [4], the T/C is 92 % of control.

Take `O=C(O)CC(=O)O.[NH-]CCC1CCCC[N-]1.[Pt+2]` (stereo not given): the T/C was 111 % of control (endpoint: mean survival time, dose: 3.13 mg/kg/injection, schedule: Q04DX003 (ip), vehicle: distilled water + Tween-80); 108 % of control (endpoint: mean survival time, dose: 6.25 mg/kg/injection, schedule: Q04DX003 (ip), vehicle: distilled water + Tween-80); 114 % of control (endpoint: mean survival time, dose: 12.5 mg/kg/injection, schedule: Q04DX003 (ip), vehicle: distilled water + Tween-80); 114 % of control (endpoint: mean survival time, dose: 25.0 mg/kg/injection, schedule: Q04DX003 (ip), vehicle: distilled water + Tween-80); 108 % of control (endpoint: mean survival time, dose: 25.0 mg/kg/injection, schedule: Q04DX003 (ip), vehicle: water); 113 % of control (endpoint: mean survival time, dose: 50.0 mg/kg/injection, schedule: Q04DX003 (ip), vehicle: distilled water + Tween-80). In addition, for the setting “endpoint: mean survival time, dose: 50.0 mg/kg/injection, schedule: Q04DX003 (ip), vehicle: water”, the T/C is 120 % of control.

`CCOC(=O)CCC(C)(C#N)c1ccccc1` (stereo not given): the T/C reads like this: under setting [2], 96 % of control; under setting [11], 93 % of control; under setting [8], 98 % of control.

Take `CC(=O)Nc1ncnc2c1ncn2C1OC(COC(C)=O)C(NC(=O)C(F)(F)F)C1OC(C)=O` (stereo not given): the T/C is 109 % of control (endpoint: median survival time, dose: 12.5 mg/kg/injection, schedule: Q01DX005 (ip), vehicle: alkali diluted with saline); 102 % of control (endpoint: median survival time, dose: 25.0 mg/kg/injection, schedule: Q01DX005 (ip), vehicle: alkali diluted with saline); 109 % of control (endpoint: median survival time, dose: 50.0 mg/kg/injection, schedule: Q01DX005 (ip), vehicle: alkali diluted with saline); 107 % of control (endpoint: median survival time, dose: 100.0 mg/kg/injection, schedule: Q01DX005 (ip), vehicle: alkali diluted with saline); 106 % of control (endpoint: median survival time, dose: 200.0 mg/kg/injection, schedule: Q01DX005 (ip), vehicle: alkali diluted with saline).
